According to patent publication US12059425B2, “Heterocyclic compounds and uses thereof” (Kumquat Biosciences Inc., priority 2022, dated 2024):

Legend:
K-Ras G12S = target: T1, K-Ras G12S (Homo sapiens, UniProt P01116, G12S); experiment: PPI-HTRF assay, K-Ras G12S / SOS1 interaction; format: biochemical; settings: read-out: PPI-HTRF-5 nM (K-Ras G12S IC50)
T1 construct: made in house; host or cells: E. coli, e.g. BL21 (DE3)
Procedure, shortened: (§1)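 GST-tagged K-Ras (G12D, G12V, G12S or wildtype) with anti-GST-Eu(K) donor was mixed with His-hSOS1 and anti-6His-XL665 acceptor in HEPES pH 7.4 buffer with NaCl, DTT, BSA and Igepal. After about 10 min, HTRF was read (ex 337 nm, em 620/665 nm). IC50 came from the 665/620 ratio, with duplicates from 10 μM down to 0.01 μM.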

wildtype K-Ras = target: T2, wildtype K-Ras (Homo sapiens, UniProt P01116); experiment: PPI-HTRF assay, wildtype K-Ras / SOS1 interaction; format: biochemical; settings: HTRF, K-Ras wt; read-out: PPI-HTRF-5 nM (K-Ras wt IC50)
T2 construct: made in house; host or cells: E. coli, e.g. BL21 (DE3)
Procedure, shortened: as §1

K-Ras G12V = target: T3, K-Ras G12V (Homo sapiens, UniProt P01116, G12V); experiment: PPI-HTRF assay, K-Ras G12V / SOS1 interaction; format: biochemical; settings: HTRF, K-Ras G12V; read-out: PPI-HTRF-5 nM (K-Ras G12V IC50)
T3 construct: made in house; host or cells: E. coli, e.g. BL21 (DE3)
Procedure, shortened: as §1

SW620 cells = experiment: Ras cellular assay, cell proliferation SW620; format: cell-based; settings: Homo sapiens, SW-620
Description: For example, this assay can be also used to assess selective growth inhibition of a mutant Ras protein relative to a wildtype, or relative to a different mutant Ras protein.

A549 cells = experiment: Ras cellular assay, cell proliferation A549; format: cell-based; settings: Homo sapiens
Procedure, shortened: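 G12S-mutant A549 cells (800/well) in RPMI-1640 plus 10% heat-inactivated FBS, standard or ultra-low attachment 384-well plates, dosed the day after plating with a 10-point 3-fold series. Viability by CellTiter-Glo luminescence about 6 days later; IC50 from four-parameter fit.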

K-Ras G12D = target: T4, K-Ras G12D (Homo sapiens, UniProt P01116, G12D); experiment: PPI-HTRF assay, K-Ras G12D / SOS1 interaction; format: biochemical; settings: HTRF, K-Ras G12D; read-out: PPI-HTRF-5 nM (K-Ras G12D IC50)
T4 construct: made in house; host or cells: E. coli, e.g. BL21 (DE3)
Procedure, shortened: as §1

GP2D cells = experiment: Ras cellular assay, cell proliferation GP2D; format: cell-based
Procedure, shortened: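 GP2D cells (G12D Ras mutant) seeded (e.g., 800/well) and treated the next day with a dilution series (e.g., 9-point, 3-fold). After approximately 5 days, viability measured by CellTiter-Glo luminescence; IC50 from four-parameter fit.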

T2 sequence (P01116 1-188 isoform P01116-2): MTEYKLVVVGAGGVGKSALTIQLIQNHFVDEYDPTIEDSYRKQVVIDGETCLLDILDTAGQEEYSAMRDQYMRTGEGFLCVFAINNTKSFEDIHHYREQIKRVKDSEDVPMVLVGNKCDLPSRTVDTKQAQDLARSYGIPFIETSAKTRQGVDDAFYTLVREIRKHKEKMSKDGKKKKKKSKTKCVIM
T4 sequence (P01116 1-188 isoform P01116-2 G12D): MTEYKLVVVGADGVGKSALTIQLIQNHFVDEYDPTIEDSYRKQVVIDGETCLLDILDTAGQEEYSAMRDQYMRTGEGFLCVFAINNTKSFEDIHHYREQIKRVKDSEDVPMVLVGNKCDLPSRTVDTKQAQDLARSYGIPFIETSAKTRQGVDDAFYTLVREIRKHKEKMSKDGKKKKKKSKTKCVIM
T3 sequence (P01116 1-188 isoform P01116-2 G12V): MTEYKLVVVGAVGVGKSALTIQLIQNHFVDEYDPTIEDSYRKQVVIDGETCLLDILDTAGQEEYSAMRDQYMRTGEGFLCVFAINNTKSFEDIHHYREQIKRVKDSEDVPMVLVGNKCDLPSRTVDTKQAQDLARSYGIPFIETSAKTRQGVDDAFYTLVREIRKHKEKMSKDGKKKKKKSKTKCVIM
T1 sequence (P01116 1-188 isoform P01116-2 G12S): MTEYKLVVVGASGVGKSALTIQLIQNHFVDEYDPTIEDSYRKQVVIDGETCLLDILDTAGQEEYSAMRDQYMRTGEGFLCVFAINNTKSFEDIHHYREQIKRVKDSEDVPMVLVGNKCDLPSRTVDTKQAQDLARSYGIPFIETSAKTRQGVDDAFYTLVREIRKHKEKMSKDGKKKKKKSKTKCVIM

N#Cc1c(N)sc2c(F)ccc(-c3c(Cl)c4c5c(nc(OCC67CCCN6C[C@H](F)C7)nc5c3F)N3CCCCCC3CO4)c12 (stereo partly drawn) [compound 193, 2-amino-4-(3-chloro-1-fluoro-13-(((2R,7aS)-2-fluorotetrahydro-1H-pyrrolizin-7a(5H)-yl)methoxy)-5a,6,7,8,9,10-hexahydro-5H-azepino[2′,1′:3,4][1,4]oxazepino[5,6,7-de]quinazolin-2-yl)-7-fluorobenzo[b]thiophene-3-carbonitrile]
IC50 (K-Ras G12S): < 5 µM
IC50 (wildtype K-Ras): < 5 µM
IC50 (K-Ras G12V): < 5 µM
IC50 (SW620 cells): < 5 µM
IC50 (A549 cells): < 5 µM
IC50 (K-Ras G12D): < 5 µM
IC50 (GP2D cells): < 5 µM

N#CCC1CN2c3nc(OC[C@@]45CCCN4C[C@H](F)C5)nc4c(F)c(-c5ccc(F)c6sc(N)c(C#N)c56)c(Cl)c(c34)OCCC12 (stereo partly drawn) [compound 114, 2-amino-4-(9-chloro-1-(cyanomethyl)-7-fluoro-5-(((2R,7aS)-2-fluorotetrahydro-1H-pyrrolizin-7a(5H)-yl)methoxy)-1,11,12,12a-tetrahydro-2H-azeto[1′,2′:5,6][1,5]oxazocino[4,3,2-de]quinazolin-8-yl)-7-fluorobenzo[b]thiophene-3-carbonitrile]
IC50 (K-Ras G12S): < 5 µM
IC50 (wildtype K-Ras): < 5 µM
IC50 (K-Ras G12V): < 5 µM
IC50 (SW620 cells): < 5 µM
IC50 (A549 cells): < 5 µM
IC50 (K-Ras G12D): < 5 µM
IC50 (GP2D cells): < 5 µM

CN1c2nc(OC[C@@]34CCCN3C[C@H](F)C4)nc3c(F)c(-c4ccc(F)c5sc(N)c(C#N)c45)c(Cl)c(c23)OCC2CNCC21 (stereo partly drawn) [compound 140, 2-amino-4-(6-chloro-4-fluoro-2-(((2R,7aS)-2-fluorotetrahydro-1H-pyrrolizin-7a(5H)-yl)methoxy)-12-methyl-8a,9,10,11,11a,12-hexahydro-8H-pyrrolo[3′,4′:6,7][1,5]oxazocino[4,3,2-de]quinazolin-5-yl)-7-fluorobenzo[b]thiophene-3-carbonitrile]
IC50 (K-Ras G12S): < 5 µM
IC50 (wildtype K-Ras): < 5 µM
IC50 (K-Ras G12V): < 5 µM
IC50 (SW620 cells): < 5 µM
IC50 (A549 cells): < 5 µM
IC50 (K-Ras G12D): < 5 µM
IC50 (GP2D cells): < 5 µM

N#Cc1c(N)sc2c(F)ccc(-c3c(Cl)c4c5c(nc(OC[C@@]67CCCN6C[C@H](F)C7)nc5c3F)N3CC(COC(F)F)CCC3CO4)c12 (stereo partly drawn) [compound 154, 2-amino-4-(6-chloro-11-((difluoromethoxy)methyl)-4-fluoro-2-(((2R,7aS)-2-fluorotetrahydro-1H-pyrrolizin-7a(5H)-yl)methoxy)-8,8a,9,10,11,12-hexahydropyrido[2′,1′:3,4][1,4]oxazepino [5,6,7-de]quinazolin-5-yl)-7-fluorobenzo[b]thiophene-3-carbonitrile]
IC50 (K-Ras G12S): < 5 µM
IC50 (wildtype K-Ras): < 5 µM
IC50 (K-Ras G12V): < 5 µM
IC50 (SW620 cells): < 5 µM
IC50 (A549 cells): < 5 µM
IC50 (K-Ras G12D): < 5 µM
IC50 (GP2D cells): < 5 µM

N#Cc1c(N)sc2c(F)ccc(-c3c(Cl)c4c5c(nc(OC[C@@]67CCCN6C[C@H](F)C7)nc5c3F)N3CC[C@H]3CO4)c12 [compound 192, 2-amino-4-((11aS)-9-chloro-7-fluoro-5-(((2R,7aS)-2-fluorotetrahydro-1H-pyrrolizin-7a(5H)-yl)methoxy)-1,2,11,11a-tetrahydroazeto[2′,1′:3,4][1,4]oxazepino [5,6,7-de]quinazolin-8-yl)-7-fluorobenzo[b]thiophene-3-carbonitrile]
IC50 (K-Ras G12S): < 5 µM
IC50 (wildtype K-Ras): < 5 µM
IC50 (K-Ras G12V): < 5 µM
IC50 (SW620 cells): < 5 µM
IC50 (A549 cells): < 5 µM
IC50 (K-Ras G12D): < 5 µM
IC50 (GP2D cells): < 5 µM

COCC1CCC2COc3c(Cl)c(-c4ccc(F)c5sc(N)c(C#N)c45)c(F)c4nc(OCC56CCCN5C[C@H](F)C6)nc(c34)N2C1 (stereo partly drawn) [compound 121, 2-amino-4-(6-chloro-4-fluoro-2-(((2R)-2-fluorotetrahydro-1H-pyrrolizin-7a(5H)-yl)methoxy)-11-(methoxymethyl)-8,8a,9,10,11,12-hexahydropyrido[2′,1′:3,4][1,4]oxazepino [5,6,7-de]quinazolin-5-yl)-7-fluorobenzo[b]thiophene-3-carbonitrile]
IC50 (K-Ras G12S): < 5 µM
IC50 (wildtype K-Ras): < 5 µM
IC50 (K-Ras G12V): < 5 µM
IC50 (SW620 cells): < 5 µM
IC50 (A549 cells): < 5 µM
IC50 (K-Ras G12D): < 5 µM
IC50 (GP2D cells): < 5 µM

N#Cc1c(N)sc2c(F)ccc(-c3c(Cl)c4c5c(nc(OC[C@@]67CCCN6C[C@H](F)C7)nc5c3F)N3CCOCC3CO4)c12 (stereo partly drawn) [compound 116, 2-amino-4-(6-chloro-4-fluoro-2-(((2R,7aS)-2-fluorotetrahydro-1H-pyrrolizin-7a(5H)-yl)methoxy)-8a,9,11,12-tetrahydro-8H-[1,4]oxazino[3′,4′:3,4][1,4]oxazepino[5,6,7-de]quinazolin-5-yl)-7-fluorobenzo[b]thiophene-3-carbonitrile]
IC50 (K-Ras G12S): < 5 µM
IC50 (wildtype K-Ras): < 5 µM
IC50 (K-Ras G12V): < 5 µM
IC50 (SW620 cells): < 5 µM
IC50 (A549 cells): < 5 µM
IC50 (K-Ras G12D): < 5 µM
IC50 (GP2D cells): < 5 µM

N#Cc1c(N)sc2c(F)ccc(-c3c(Cl)c4c5c(nc(OC[C@@]67CCCN6C[C@H](F)C7)nc5c3F)N3CCN(CC(F)F)CCC3CO4)c12 (stereo partly drawn) [compound 170, 2-amino-4-(6-chloro-11-(2,2-difluoroethyl)-4-fluoro-2-(((2R,7aS)-2-fluorotetrahydro-1H-pyrrolizin-7a(5H)-yl)methoxy)-8a,9,10,11,12,13-hexahydro-8H-[1,4]diazepino[7′,1′:3,4][1,4]oxazepino [5,6,7-de]quinazolin-5-yl)-7-fluorobenzo[b]thiophene-3-carbonitrile]
IC50 (K-Ras G12S): < 5 µM
IC50 (wildtype K-Ras): < 5 µM
IC50 (K-Ras G12V): < 5 µM
IC50 (SW620 cells): < 5 µM
IC50 (A549 cells): < 5 µM
IC50 (K-Ras G12D): < 5 µM
IC50 (GP2D cells): < 5 µM

N#Cc1c(N)sc2c(F)ccc(-c3c(Cl)c4c5c(nc(OC[C@@]67CCCN6C[C@H](F)C7)nc5c3F)N3CC(OC(F)F)CCC3CO4)c12 (single isomer, unassigned) [compound 148]
IC50 (K-Ras G12S): < 5 µM
IC50 (wildtype K-Ras): < 5 µM
IC50 (K-Ras G12V): < 5 µM
IC50 (SW620 cells): < 5 µM
IC50 (A549 cells): > 5 µM
IC50 (K-Ras G12D): < 5 µM
IC50 (GP2D cells): < 5 µM

N#Cc1c(N)sc2c(F)ccc(-c3c(Cl)c4c5c(nc(OCC67CCCN6C[C@H](F)C7)nc5c3F)N3CC(CO)CCC3CO4)c12 (stereo partly drawn) [compound 215, 2-amino-4-(6-chloro-4-fluoro-2-(((2R)-2-fluorotetrahydro-1H-pyrrolizin-7a(5H)-yl)methoxy)-11-(hydroxymethyl)-8,8a,9,10,11,12-hexahydropyrido[2′,1′:3,4][1,4]oxazepino [5,6,7-de]quinazolin-5-yl)-7-fluorobenzo[b]thiophene-3-carbonitrile]
IC50 (K-Ras G12S): < 5 µM
IC50 (wildtype K-Ras): < 5 µM
IC50 (K-Ras G12V): < 5 µM
IC50 (SW620 cells): < 5 µM
IC50 (A549 cells): < 5 µM
IC50 (K-Ras G12D): < 5 µM
IC50 (GP2D cells): < 5 µM

CCN1c2nc(OC[C@@]34CCCN3C[C@H](F)C4)nc3c(F)c(-c4ccc(F)c5sc(N)c(C#N)c45)c(Cl)c(c23)OCC2COCC21 (stereo partly drawn) [compound 186, 2-amino-4-(6-chloro-12-ethyl-4-fluoro-2-(((2R,7aS)-2-fluorotetrahydro-1H-pyrrolizin-7a(5H)-yl)methoxy)-8a,9,11a,12-tetrahydro-8H,11H-furo[3′,4′:6,7][1,5]oxazocino[4,3,2-de]quinazolin-5-yl)-7-fluorobenzo[b]thiophene-3-carbonitrile]
IC50 (K-Ras G12S): < 5 µM
IC50 (wildtype K-Ras): < 5 µM
IC50 (K-Ras G12V): < 5 µM
IC50 (SW620 cells): < 5 µM
IC50 (A549 cells): < 5 µM
IC50 (K-Ras G12D): < 5 µM
IC50 (GP2D cells): < 5 µM

CN1c2nc(OC[C@@]34CCCN3C[C@H](F)C4)nc3c(F)c(-c4ccc(F)c5sc(N)c(C#N)c45)c(Cl)c(c23)OC2CN(C=O)CC21 (stereo partly drawn) [compound 126, 2-amino-4-(6-chloro-4-fluoro-2-(((2R,7aS)-2-fluorotetrahydro-1H-pyrrolizin-7a(5H)-yl)methoxy)-9-formyl-11-methyl-7a,8,9,10,10a,11-hexahydropyrrolo[3′,4′:2,3][1,4]oxazepino[5,6,7-de]quinazolin-5-yl)-7-fluorobenzo[b]thiophene-3-carbonitrile]
IC50 (K-Ras G12S): < 5 µM
IC50 (wildtype K-Ras): < 5 µM
IC50 (K-Ras G12V): < 5 µM
IC50 (SW620 cells): < 5 µM
IC50 (A549 cells): < 5 µM
IC50 (K-Ras G12D): < 5 µM
IC50 (GP2D cells): < 5 µM

N#Cc1c(N)sc2c(F)ccc(-c3c(Cl)c4c5c(nc(OC[C@@]67CCCN6C[C@H](F)C7)nc5c3F)N3C(CCC3COC(F)F)CO4)c12 (stereo partly drawn) [compound 161, 2-amino-4-(6-chloro-11-((difluoromethoxy)methyl)-4-fluoro-2-(((2R,7aS)-2-fluorotetrahydro-1H-pyrrolizin-7a(5H)-yl)methoxy)-8a,9,10,11-tetrahydro-8H-pyrrolo[2′,1′:3,4][1,4]oxazepino[5,6,7-de]quinazolin-5-yl)-7-fluorobenzo[b]thiophene-3-carbonitrile]
IC50 (K-Ras G12S): < 5 µM
IC50 (wildtype K-Ras): < 5 µM
IC50 (K-Ras G12V): < 5 µM
IC50 (SW620 cells): < 5 µM
IC50 (A549 cells): < 5 µM
IC50 (K-Ras G12D): < 5 µM
IC50 (GP2D cells): < 5 µM
